This note sets out measurements from US11865183B2, “Conjugates and conjugating reagents comprising a linker that includes at least two (−CH2—CH2—O—) units in a ring” (priority 2016, dated 2024).

One may read the IC50 as the point on the concentration scale where inhibition reaches its midpoint.

Test [1] relates to C4-2 cells (PSMA). Nature of the test: In vitro cell viability assay (Cell-Titer Glo), C4-2. Particulars: C4-2, 96 h treatment. The format is cell-based. The source says: (§1) Loss of tumour cell viability following treatment with cytotoxic drugs in vitro can be measured by growing cell lines in the presence of increasing concentrations of drug and quantifying the loss of proliferation or metabolic activity using Cell-Titer Glo® Luminescent reagent (Promega). The protocol for PSMA and CD30 overexpressing cell lines describes cell seeding, drug treatment and determination of the cell viability in reference to untreated cells based on ATP synthesis, which is directly correlated to the number of cells present in the well.
(§2) The cell lines listed in Table 2 were maintained following the suppliers' recommendations.
(§3) Adherent PSMA-positive LNCaP and C4-2 cells were detached with TrypLE and resuspended in complete medium. Cells were counted using disposable Neubauer counting chambers and cell density adjusted to 10×10^4 cells/mL for LNCaP and 2×10^4 cells/mL for C4-2, respectively. […]
(§4) The cell viability assay was carried out using the Cell-Titer Glo® Luminescence reagent, as described by the manufacturer's instructions, (Promega Corp. Technical Bulletin TB288; Lewis Phillips G. D, Cancer Res 2008; 68:9280-9290).
(§5) Luminescence was recorded using a Molecular Devices Spectramax i3x plate reader and data subsequently analysed using GraphPad Prism four parameter non-linear regression model. […]

Test [2] concerns Karpas 299 cells (CD30). Nature of the test: In vitro cell viability assay (Cell-Titer Glo), Karpas 299. The format is cell-based, Human. Particulars: Karpas 299, 96 h treatment. From the text:
Viability was expressed as % of untreated cells and calculated using the following formula: […]

Test [3] relates to LNCaP cells (PSMA). Nature of the test: In vitro cell viability assay (Cell-Titer Glo), LNCaP. The format is cell-based. As to conditions: 96 h treatment.
From the text: as §1, §2, §3, §4, §5

Test [4] concerns Karpas-299 cells (T-anaplastic large cell lymphoma, ALCL). Nature of the test: Karpas-299 mouse xenograft study. The format is in vivo, CB17-SCID mice. As to conditions: single i.v. 1 mg/kg on day 12, groups of eight mice. On the procedure:
Healthy female CB17-SCID mice (CBySmn.CB17-Prkdcscid/J, Charles River Laboratories) with an average body weight of 18.1 g were used for cell inoculation (Day 0). 24 to 72 h prior to tumour cell injection, the mice were γ-irradiated (1.44 Gy, ^60Co). The animals were maintained in SPF health status according to the FELASA guidelines in housing rooms under controlled environmental conditions.
Tumours were induced by subcutaneous injection of 10^7 Karpas-299 cells (T-anaplastic large cell lymphoma, ALCL) in 200 μL of RPMI 1640 into the right flank. Tumours were measured twice a week with calipers, and the volume was estimated using the formula: […]
Twelve days after tumour implantation (Day 12), the animals were randomised into groups of eight mice using Vivo manager® software (211 mm^3 mean tumour volume) and treatment was initiated. The animals from the vehicle group received a single intravenous (i.v.) injection of PBS. The treated groups were dosed with a single i.v. injection of ADC at 0.8 mg/kg, or Adcetris© (brentuximab vedotin) at 1 mg/kg.
Treatment tolerability was assessed by bi-weekly body weight measurement and daily observation for clinical signs of treatment-related side effects. Mice were euthanized when a humane endpoint was reached (e.g. 1,600 mm^3 tumour volume) or after a maximum of 9 weeks post-dosing. Asterisks within the graphs indicate where animals were euthanized. […]

Several values for one entry are separate records, joined by “and”; a condition that tells them apart may be missing. Equal values may be shown once. Non-standard residues stand in square brackets, D forms with d. Residues, ends and D or L forms follow the SMILES beside them. *: point of attachment. Dolaproine = CO[C@@H]([C@@H]1CCCN1)[C@@H](C)C(=O)O; Dil = CC[C@H](C)[C@H](NC)[C@@H](CC(=O)O)OC; X1 = C[C@@H](N*)[C@@H](O)c1ccccc1; NMeV = CN[C@H](C(=O)O)C(C)C

With `CC[C@H](C)[C@@H]([C@@H](CC(=O)N1CCC[C@H]1[C@H](OC)[C@@H](C)C(=O)N[C@H](C)[C@@H](O)c1ccccc1)OC)N(C)C(=O)[C@@H](NC(=O)[C@@H](NC)C(C)C)C(C)C` [MMAE, monomethyl auristatin E] (H-[NMeV]V[Dil][Dolaproine]-X1), the IC50 in test [1] was 0.71 nM; in test [2] it was 0.15 nM and 0.2 nM; in test [3], 2.14 nM.
For the compound brentuximab vedotin [Adcetris®], the “Animals with tumour re-growth” value in test [4] (after day 20) is on record as 7/8. Also, the “Animals with no measureable tumour at end of study (day 71)” value in test [4] is 1/8.
